Test results taken from ChEMBL document CHEMBL1201862, “PubChem BioAssay data set” (2004).
Calls of active or inactive are those of the source.

What was measured:
[1] = target: T1, Protein RecA (Mycobacterium tuberculosis, UniProt P9WHJ3); experiment: Fluorescence Cell-Free Homogeneous Dose Retest to Identify Inhibitors of RecA-Intein Splicing Activity. [Related pubchem assays (depositor defined):AID2097, AID2223, AID489010, AID492950]; assay type: functional
T1 sequence (P9WHJ3 whole entry): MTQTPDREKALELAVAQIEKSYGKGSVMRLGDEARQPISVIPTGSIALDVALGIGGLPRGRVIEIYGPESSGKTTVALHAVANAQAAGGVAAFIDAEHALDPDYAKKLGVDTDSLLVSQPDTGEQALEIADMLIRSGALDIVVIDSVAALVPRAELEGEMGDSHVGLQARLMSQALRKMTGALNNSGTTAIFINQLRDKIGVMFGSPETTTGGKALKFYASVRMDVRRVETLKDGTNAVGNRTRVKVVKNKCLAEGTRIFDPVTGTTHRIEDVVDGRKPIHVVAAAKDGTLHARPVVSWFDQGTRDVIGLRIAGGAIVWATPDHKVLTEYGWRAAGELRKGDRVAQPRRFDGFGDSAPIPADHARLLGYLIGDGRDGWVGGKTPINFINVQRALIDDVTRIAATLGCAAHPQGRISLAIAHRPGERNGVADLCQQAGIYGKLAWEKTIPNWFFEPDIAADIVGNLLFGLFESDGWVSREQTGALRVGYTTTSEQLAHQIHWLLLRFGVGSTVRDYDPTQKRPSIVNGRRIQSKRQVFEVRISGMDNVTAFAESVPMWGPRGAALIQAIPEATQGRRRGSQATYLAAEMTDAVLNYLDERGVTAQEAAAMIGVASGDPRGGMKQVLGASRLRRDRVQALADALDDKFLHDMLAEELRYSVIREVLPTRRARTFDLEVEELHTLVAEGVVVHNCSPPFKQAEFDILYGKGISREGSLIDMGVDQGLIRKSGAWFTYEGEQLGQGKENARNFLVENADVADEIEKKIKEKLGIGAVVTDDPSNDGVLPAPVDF

[2] = target: T2, RNA-binding protein pos-1 (Caenorhabditis elegans, UniProt G5EF15); experiment: inhibitors of POS-1/mex-3 RNA binding, dose response, biochemical, fluorescence polarization (AID 1964);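 further: purified POS-1 fused to maltose binding protein made in E. coli; potency of compounds blocking POS-1 binding to fluorescent RNA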
T2 sequence (G5EF15 whole entry): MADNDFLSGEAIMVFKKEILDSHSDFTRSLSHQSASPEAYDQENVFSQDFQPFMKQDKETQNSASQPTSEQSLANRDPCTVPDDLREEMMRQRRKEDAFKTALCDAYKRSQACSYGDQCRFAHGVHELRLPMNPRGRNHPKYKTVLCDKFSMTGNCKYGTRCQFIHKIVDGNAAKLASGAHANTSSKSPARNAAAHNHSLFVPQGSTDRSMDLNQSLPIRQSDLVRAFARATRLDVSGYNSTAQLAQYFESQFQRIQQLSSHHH

[3] = target: T3, Zinc finger protein mex-5 (Caenorhabditis elegans, UniProt Q9XUB2); experiment: MEX-5/TCR-2 RNA interaction inhibitors, dose response, biochemical, C. elegans, fluorescence polarization (AID 1960)
T3 sequence (Q9XUB2 whole entry): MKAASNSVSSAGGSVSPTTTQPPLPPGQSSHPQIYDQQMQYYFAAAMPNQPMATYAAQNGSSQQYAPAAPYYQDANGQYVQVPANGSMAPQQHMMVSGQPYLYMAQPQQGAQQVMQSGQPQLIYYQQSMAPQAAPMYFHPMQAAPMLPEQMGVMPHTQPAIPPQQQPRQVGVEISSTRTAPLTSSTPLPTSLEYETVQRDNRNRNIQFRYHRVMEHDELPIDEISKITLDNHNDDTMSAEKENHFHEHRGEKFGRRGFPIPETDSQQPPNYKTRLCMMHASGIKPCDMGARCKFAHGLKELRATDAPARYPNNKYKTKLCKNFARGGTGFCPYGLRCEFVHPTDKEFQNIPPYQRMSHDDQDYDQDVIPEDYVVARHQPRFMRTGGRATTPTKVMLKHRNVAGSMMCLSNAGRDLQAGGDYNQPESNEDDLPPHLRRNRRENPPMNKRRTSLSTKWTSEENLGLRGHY

[4] = target: Cyclin-dependent kinase 2 (Homo sapiens, UniProt P24941); assay type: functional;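 further: CDK2 measured as one member of a broad kinome profiling panel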
[5] = target: Cell division cycle 7-related protein kinase (Homo sapiens, UniProt O00311); assay type: functional;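 further: value obtained from a kinome-wide kinase panel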
[6] = target: Homeodomain-interacting protein kinase 2 (Homo sapiens, UniProt Q9H2X6); assay type: functional;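 further: measured within a kinome-wide kinase profiling panel, HIPK2 being one panel member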
[7] = target: Mitogen-activated protein kinase kinase kinase kinase 5 (Homo sapiens, UniProt Q9Y4K4); assay type: functional;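 further: measured as one member of a kinome-spanning kinase panel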
[8] = target: Misshapen-like kinase 1 (Homo sapiens, UniProt Q8N4C8); assay type: functional;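 further: kinome panel screen with MINK as the panel member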
[9] = target: Calcium/calmodulin-dependent protein kinase type II subunit delta (Homo sapiens, UniProt Q13557); assay type: functional
[10] = target: Mitogen-activated protein kinase kinase kinase kinase 4 (Homo sapiens, UniProt O95819); assay type: functional
[11] = target: MAP/microtubule affinity-regulating kinase 4 (Homo sapiens, UniProt Q96L34); experiment: Navigating the Kinome. Panel member name: MARK4; assay type: functional
[12] = target: Large T antigen (Simian virus 40, UniProt P03070); assay type: functional, Betapolyomavirus macacae;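 further: Confirmatory-stage PubChem screen for compounds that inhibit SV40 T antigen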
[13] = target: Calcium/calmodulin-dependent protein kinase kinase 2 (Homo sapiens, UniProt Q96RR4); experiment: Navigating the Kinome. Panel member name: CAMKK2; assay type: functional
[14] = target: Serine/threonine-protein kinase SIK2 (Homo sapiens, UniProt Q9H0K1); experiment: Navigating the Kinome. Panel member name: SIK2; assay type: functional
[15] = target: Mast/stem cell growth factor receptor Kit (Homo sapiens, UniProt P10721); assay type: functional;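 further: KIT entry within a kinase panel assay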
[16] = target: Focal adhesion kinase 1 (Homo sapiens, UniProt Q05397); assay type: functional;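 further: measured as one member of a kinome panel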
[17] = target: Cytochrome P450 2C19 (Homo sapiens, UniProt P33261); experiment: Cytochrome panel assay with activity outcomes. Panel member name: p450-cyp2c19 Compounds with AC50 equal or less than 10 uM are considered active; assay type: functional; details: read-out: AC50
[18] = target: MAP/microtubule affinity-regulating kinase 3 (Homo sapiens, UniProt P27448); assay type: functional;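 further: MARK3 affinity measured as one member of a kinome panel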
[19] = target: Tyrosine-protein kinase HCK (Homo sapiens, UniProt P08631); experiment: Navigating the Kinome. Panel member name: HCK; assay type: functional
Chain of Tyrosine-protein kinase HCK (P08631 whole entry): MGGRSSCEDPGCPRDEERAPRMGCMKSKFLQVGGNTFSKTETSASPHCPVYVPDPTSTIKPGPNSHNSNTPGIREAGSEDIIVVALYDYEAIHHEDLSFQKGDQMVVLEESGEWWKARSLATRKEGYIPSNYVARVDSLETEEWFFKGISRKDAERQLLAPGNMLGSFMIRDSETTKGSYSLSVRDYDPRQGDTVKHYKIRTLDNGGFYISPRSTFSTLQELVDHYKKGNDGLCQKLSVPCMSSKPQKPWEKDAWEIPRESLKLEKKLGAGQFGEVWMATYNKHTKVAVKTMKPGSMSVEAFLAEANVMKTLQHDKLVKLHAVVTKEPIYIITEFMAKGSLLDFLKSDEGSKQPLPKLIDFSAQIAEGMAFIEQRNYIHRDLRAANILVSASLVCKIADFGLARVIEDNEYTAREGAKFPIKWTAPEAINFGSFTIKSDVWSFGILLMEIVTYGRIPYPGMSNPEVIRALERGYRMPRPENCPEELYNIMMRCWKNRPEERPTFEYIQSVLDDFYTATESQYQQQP

Chain of MAP/microtubule affinity-regulating kinase 3 (P27448 whole entry): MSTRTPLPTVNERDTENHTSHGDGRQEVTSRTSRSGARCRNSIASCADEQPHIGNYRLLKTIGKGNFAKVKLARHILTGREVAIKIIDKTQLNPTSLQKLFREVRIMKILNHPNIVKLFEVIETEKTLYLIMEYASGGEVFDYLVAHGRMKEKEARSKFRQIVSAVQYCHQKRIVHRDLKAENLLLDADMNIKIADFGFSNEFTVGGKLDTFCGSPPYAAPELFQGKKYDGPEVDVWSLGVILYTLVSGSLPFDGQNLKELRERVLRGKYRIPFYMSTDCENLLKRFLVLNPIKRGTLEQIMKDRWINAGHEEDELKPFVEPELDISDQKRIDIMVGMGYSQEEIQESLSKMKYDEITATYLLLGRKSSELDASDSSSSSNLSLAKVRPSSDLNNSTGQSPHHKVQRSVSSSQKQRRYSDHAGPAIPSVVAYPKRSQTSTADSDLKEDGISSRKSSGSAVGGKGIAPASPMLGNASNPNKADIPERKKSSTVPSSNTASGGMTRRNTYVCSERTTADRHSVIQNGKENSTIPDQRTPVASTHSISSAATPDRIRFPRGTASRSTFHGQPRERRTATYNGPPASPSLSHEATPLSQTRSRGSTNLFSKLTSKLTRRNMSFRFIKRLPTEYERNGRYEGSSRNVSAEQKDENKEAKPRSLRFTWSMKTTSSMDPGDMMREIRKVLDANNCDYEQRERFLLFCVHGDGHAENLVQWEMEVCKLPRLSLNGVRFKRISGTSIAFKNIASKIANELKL
Chain of Mitogen-activated protein kinase kinase kinase kinase 5 (Q9Y4K4 whole entry): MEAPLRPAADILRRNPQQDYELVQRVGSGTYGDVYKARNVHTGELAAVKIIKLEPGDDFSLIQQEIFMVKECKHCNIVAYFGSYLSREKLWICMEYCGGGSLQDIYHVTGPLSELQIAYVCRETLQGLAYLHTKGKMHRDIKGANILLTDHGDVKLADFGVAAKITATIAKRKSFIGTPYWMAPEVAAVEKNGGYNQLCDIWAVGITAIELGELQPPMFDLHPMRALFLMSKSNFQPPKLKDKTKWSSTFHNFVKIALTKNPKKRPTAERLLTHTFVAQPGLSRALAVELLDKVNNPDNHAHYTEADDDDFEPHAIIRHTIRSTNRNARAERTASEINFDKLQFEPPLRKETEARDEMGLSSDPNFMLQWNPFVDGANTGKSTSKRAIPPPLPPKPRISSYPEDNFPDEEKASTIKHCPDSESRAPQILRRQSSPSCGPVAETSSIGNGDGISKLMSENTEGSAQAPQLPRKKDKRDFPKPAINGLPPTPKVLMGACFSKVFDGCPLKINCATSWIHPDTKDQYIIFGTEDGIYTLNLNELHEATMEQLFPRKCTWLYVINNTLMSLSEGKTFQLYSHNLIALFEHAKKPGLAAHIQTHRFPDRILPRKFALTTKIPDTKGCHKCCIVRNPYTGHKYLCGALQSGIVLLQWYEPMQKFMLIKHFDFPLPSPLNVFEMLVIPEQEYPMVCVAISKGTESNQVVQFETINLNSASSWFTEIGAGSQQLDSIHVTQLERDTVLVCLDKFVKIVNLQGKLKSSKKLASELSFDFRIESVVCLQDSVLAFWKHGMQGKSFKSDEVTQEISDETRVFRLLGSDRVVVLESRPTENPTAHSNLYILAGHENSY
Chain of Mast/stem cell growth factor receptor Kit (P10721 whole entry): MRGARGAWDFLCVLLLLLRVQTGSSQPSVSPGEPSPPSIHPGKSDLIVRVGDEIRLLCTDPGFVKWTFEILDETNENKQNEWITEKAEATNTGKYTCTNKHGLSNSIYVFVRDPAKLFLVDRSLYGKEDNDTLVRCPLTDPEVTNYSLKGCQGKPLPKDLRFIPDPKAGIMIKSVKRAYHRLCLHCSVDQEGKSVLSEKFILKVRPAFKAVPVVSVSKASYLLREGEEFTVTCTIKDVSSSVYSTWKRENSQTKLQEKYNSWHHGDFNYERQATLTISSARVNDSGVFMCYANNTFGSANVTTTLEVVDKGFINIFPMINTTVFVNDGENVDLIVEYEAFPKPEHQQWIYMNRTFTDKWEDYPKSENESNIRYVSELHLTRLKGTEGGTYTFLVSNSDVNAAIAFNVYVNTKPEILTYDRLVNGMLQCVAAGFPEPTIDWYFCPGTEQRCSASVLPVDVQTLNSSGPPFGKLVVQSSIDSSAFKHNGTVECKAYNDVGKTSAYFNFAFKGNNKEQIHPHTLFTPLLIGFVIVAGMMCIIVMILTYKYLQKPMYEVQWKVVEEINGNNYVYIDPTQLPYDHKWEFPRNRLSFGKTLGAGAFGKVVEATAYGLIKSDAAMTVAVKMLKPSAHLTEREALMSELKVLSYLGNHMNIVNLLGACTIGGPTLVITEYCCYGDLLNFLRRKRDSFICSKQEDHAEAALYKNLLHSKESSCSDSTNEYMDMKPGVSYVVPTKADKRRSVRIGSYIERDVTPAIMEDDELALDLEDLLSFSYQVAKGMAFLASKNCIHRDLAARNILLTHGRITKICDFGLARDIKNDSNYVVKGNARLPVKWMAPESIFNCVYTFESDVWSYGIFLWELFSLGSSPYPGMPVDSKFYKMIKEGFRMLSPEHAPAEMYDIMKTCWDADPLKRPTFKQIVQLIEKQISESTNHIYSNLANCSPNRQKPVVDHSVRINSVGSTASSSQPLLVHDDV
Chain of Misshapen-like kinase 1 (Q8N4C8 whole entry): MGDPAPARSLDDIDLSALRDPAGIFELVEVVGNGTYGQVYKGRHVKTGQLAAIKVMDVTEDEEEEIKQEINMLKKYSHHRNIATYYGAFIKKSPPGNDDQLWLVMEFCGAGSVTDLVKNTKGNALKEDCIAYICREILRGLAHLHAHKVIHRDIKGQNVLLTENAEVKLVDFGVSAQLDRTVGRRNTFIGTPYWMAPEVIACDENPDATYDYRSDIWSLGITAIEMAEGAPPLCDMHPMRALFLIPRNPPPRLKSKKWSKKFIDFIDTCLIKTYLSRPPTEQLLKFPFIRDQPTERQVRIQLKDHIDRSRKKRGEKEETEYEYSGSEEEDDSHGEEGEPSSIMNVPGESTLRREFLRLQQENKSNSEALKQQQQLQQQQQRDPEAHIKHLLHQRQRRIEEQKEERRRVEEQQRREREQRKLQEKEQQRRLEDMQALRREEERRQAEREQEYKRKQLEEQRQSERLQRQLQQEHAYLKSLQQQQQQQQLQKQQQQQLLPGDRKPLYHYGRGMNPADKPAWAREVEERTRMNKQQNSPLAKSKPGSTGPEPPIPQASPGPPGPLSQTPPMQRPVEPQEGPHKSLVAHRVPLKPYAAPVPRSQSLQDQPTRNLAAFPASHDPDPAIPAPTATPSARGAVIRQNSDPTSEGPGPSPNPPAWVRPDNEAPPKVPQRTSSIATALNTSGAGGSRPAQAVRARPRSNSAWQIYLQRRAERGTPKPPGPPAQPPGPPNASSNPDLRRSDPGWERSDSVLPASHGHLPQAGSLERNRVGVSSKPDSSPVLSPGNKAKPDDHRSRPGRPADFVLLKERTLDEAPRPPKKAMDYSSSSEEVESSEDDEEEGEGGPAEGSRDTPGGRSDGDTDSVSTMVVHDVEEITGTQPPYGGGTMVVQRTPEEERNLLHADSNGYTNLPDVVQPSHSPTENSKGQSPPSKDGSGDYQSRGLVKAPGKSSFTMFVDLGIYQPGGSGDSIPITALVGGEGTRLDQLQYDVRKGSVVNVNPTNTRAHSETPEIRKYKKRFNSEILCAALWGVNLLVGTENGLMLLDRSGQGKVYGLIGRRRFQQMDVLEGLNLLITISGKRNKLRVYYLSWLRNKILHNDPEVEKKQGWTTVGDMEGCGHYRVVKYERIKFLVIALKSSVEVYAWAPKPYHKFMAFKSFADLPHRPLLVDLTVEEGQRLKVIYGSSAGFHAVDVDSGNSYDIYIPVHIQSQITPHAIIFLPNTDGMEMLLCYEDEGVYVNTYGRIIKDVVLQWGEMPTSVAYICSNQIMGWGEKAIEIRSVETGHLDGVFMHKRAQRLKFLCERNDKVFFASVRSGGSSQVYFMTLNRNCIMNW
Chain of Calcium/calmodulin-dependent protein kinase kinase 2 (Q96RR4 whole entry): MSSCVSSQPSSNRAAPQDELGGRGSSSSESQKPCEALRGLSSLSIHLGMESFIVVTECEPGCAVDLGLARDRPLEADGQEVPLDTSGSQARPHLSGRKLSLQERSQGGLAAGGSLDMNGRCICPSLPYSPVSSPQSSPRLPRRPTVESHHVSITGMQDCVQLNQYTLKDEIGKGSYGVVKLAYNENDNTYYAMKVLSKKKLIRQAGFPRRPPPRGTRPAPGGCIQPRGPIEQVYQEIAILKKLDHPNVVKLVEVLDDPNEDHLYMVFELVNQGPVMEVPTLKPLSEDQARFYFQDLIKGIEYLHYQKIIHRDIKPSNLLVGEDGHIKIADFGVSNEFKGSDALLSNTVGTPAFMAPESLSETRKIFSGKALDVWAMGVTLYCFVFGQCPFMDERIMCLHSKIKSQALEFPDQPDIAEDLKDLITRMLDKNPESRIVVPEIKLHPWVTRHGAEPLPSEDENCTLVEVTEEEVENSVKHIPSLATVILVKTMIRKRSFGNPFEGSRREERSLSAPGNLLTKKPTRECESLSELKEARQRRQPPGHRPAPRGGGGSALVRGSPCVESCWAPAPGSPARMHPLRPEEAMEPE

For `c1ccc2nc3cc4[nH]cnc4cc3nc2c1`, the EC50 [1] was 29.6 µM (inconclusive), the EC50 [2] was 7.59 µM (inconclusive) and the EC50 [3] was 1.74 µM (inconclusive).
For `CCCCC(=O)Nc1cc(-c2c[nH]c3ncccc23)cc(Cl)n1`, the Ki [4] was > 3.16 µM (inactive), the Ki [5] was 0.000501 µM (active) and the Ki [6] was > 3.98 µM (inactive). For the same molecule, the Ki [7] was > 3.98 µM (inactive), the Ki [8] was > 2.51 µM (inactive) and the Ki [9] was > 3.16 µM (inactive).
In the case of `Oc1ccc(-c2nc(-c3ccncc3)c(-c3ccc(F)cc3)[nH]2)cc1` [SB-202190], the Ki [10] is reported as 1 µM (active), the Ki [11] is reported as > 5.01 µM (inactive) and the IC50 [12] is reported as 4.87 µM (active). The Ki [13] was > 2.51 µM (inactive), the Ki [14] was > 3.98 µM (inactive) and the Ki [15] was > 6.31 µM (inactive). The Ki [16] was > 3.98 µM (inactive), the AC50 [17] was 10 µM (inconclusive) and the Ki [18] was > 5.01 µM (inactive). The Ki [19] was > 3.16 µM (inactive).
